The source of these data is doi:10.1101/2022.01.05.475095v1 (biorxiv, 2022).

For test [1], the target named is T1, SARS-CoV-2 PLpro (Severe acute respiratory syndrome coronavirus 2, UniProt P0DTD1). Put plainly: biochemical. To be noted: read-out: PLpro % inhibition at 10 µM.
In test [2] the target is T1, SARS-CoV-2 PLpro. The experiment in a line: fluorogenic Z-RLRGG-AMC cleavage assay. Format: biochemical. The note with it: read-out: % inhibition at 10 μM.

Each structure is given as a SMILES string.

Take `CC1(C)OC2=C(C(=O)C(=O)c3ccccc32)C1n1cc(-c2ccccc2)nn1` (stereo not shown) [compound 159]: the inhibition at 10 µM at SARS-CoV-2 PLpro [1] was 100 ± 1%.

For `CC1(C)OC2=C(C(=O)C(=O)c3ccccc32)C1n1cc(CNC2=CC(=O)c3ccccc3C2=O)nn1` (stereo not shown) [compound 189], the inhibition at 10 µM on SARS-CoV-2 PLpro [1] was determined as 100%.

Consider `CC1(C)OC2=C(C(=O)C(=O)c3ccccc32)C1n1cc(CNC2=C(Br)C(=O)c3ccccc3C2=O)nn1` (stereo not shown) [compound 191], for which the inhibition at 10 µM at SARS-CoV-2 PLpro [1] came to 93 ± 0.7%.

As for `Cc1ccc(S(=O)(=O)n2cc(CN(C3=CC(=O)c4ccccc4C3=O)c3ccc(Br)cc3)nn2)cc1` [compound 314, 314], at SARS-CoV-2 PLpro [2], the inhibition at 10 µM was 55 ± 7%.

In the case of `CC(=O)c1ccc(N(Cc2cn(S(=O)(=O)c3ccc(C)cc3)nn2)C2=CC(=O)c3ccccc3C2=O)cc1` [compound 318], the inhibition at 10 µM at SARS-CoV-2 PLpro [1] was 9 ± 5%.

Take `Cc1ccc(S(=O)(=O)n2cc(CNC3=CC(=O)c4ccccc4C3=O)nn2)cc1` [compound 319, 319]: the inhibition at 10 µM on SARS-CoV-2 PLpro [2] amounted to 69 ± 3%.

In the case of `Cc1ccc(S(=O)(=O)n2cc(CNC3=C(Cl)C(=O)c4ccccc4C3=O)nn2)cc1` [compound 320, 320], the inhibition at 10 µM on SARS-CoV-2 PLpro [1] was determined as 31 ± 6%.

With `Cc1ccc(S(=O)(=O)n2cc(CNC3=C(Br)C(=O)c4ccccc4C3=O)nn2)cc1` [compound 321, 321], the inhibition at 10 µM at SARS-CoV-2 PLpro [1] was 17 ± 0.2%.

`O=C1C(Sc2ccccc2)=C(Sc2ccccc2)C(=O)c2ccccc21` [compound 379]: the inhibition at 10 µM on SARS-CoV-2 PLpro [1] stood at 0%.

Consider `O=C1C(Sc2ccc(Br)cc2)=C(Sc2ccc(Br)cc2)C(=O)c2ccccc21` [compound 380, 380], for which the inhibition at 10 µM at SARS-CoV-2 PLpro [1] is 12 ± 6%.

On to `COc1ccc(SC2=C(Sc3ccc(OC)cc3)C(=O)c3ccccc3C2=O)cc1` [compound 382], for which the inhibition at 10 µM on SARS-CoV-2 PLpro [1] amounted to 0%.

Consider `CC(=O)NC1=CC(=O)c2cccc(O)c2C1=O` [compound 414, 414], for which the inhibition at 10 µM at SARS-CoV-2 PLpro [1] was 38 ± 2%.

In the case of `CC(=O)NC1=CC(=O)c2c(cccc2[N+](=O)[O-])C1=O` [compound 415, 415], the inhibition at 10 µM at SARS-CoV-2 PLpro [2] came to 63 ± 9%.

For the compound `Cc1ccc(S(=O)(=O)c2cccc3c2C(=O)c2ccccc2C3=O)cc1` [compound 477, 477], the inhibition at 10 µM at SARS-CoV-2 PLpro [1] is 0%.

For the compound `CC1(C)OC2=C(CC1Br)C(=O)C(=NNc1ccccc1)c1ccccc12` (stereo not shown) [compound 666, 666], the inhibition at 10 µM on SARS-CoV-2 PLpro [1] amounted to 0%.

As to `CC1(C)CC2=C(O1)c1ccccc1C(=NNc1ccccc1)C2=O` [compound 673, 673], the inhibition at 10 µM on SARS-CoV-2 PLpro [1] worked out at 4 ± 4%.

As usually defined, the inhibition is the change of the read-out against control, counted positive when it falls.
